± gives the expanded uncertainty stated by the source.
Legend:
[1] = Molar enthalpy of transition or fusion; settings: Crystal; DSC
[2] = Crystal; DTA

Compound: CCCCC/C=C\C/C=C\CCCCCCCC(=O)O [(Z,Z)-9,12-octadecadienoic acid]
- Molar enthalpy of transition or fusion [1]: 8.15 ± 0.215 kcal/mol
- Normal melting temperature [2]: -4.91 ± 0.58 °C

Compound: CCCCCCCCCCCCCCCCCC(=O)O [octadecanoic acid]
- Molar enthalpy of transition or fusion [1]: 15.4 ± 0.55 kcal/mol
- Normal melting temperature [2]: 70.83 ± 0.61 °C

Compound: CCCCCCCCCCCCCC(=O)O [tetradecanoic acid]
- Molar enthalpy of transition or fusion [1]: 10.7 ± 0.406 kcal/mol
- Normal melting temperature [2]: 54.53 ± 0.84 °C
